Laboratory results from PubChem BioAssay AID248 (DTP/NCI, 2004).
Where “and” joins values, the source holds several entries; their conditions need not be identical. Identical values can stand only once. Inconclusive results and toxic doses are left out. Rule as the data show it: active = T/C of 150% or more; inactive = T/C below 125%.

Test system: L1210 leukemia ip in BDF1 mice, survival T/C
Assay: NCI In Vivo Anticancer Drug Screen. Data for tumor model L1210 Leukemia (intraperitoneal) in B6D2F1 (BDF1) mice
Conditions: endpoint: mean survival time, higher = longer survival
Procedure, shortened: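 Transplanted-tumor mice were given test agent; controls received vehicle only. Survival readings from the two groups were divided (treated over control).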

[1] = dose: 75.0 mg/kg/injection, schedule: Q01DX001 (ip), vehicle: acid diluted with saline
[2] = dose: 100.0 mg/kg/injection, schedule: Q01DX009 (ip), vehicle: saline with Tween-80
[3] = dose: 200.0 mg/kg/injection, schedule: Q01DX009 (ip), vehicle: saline with Tween-80
[4] = dose: 400.0 mg/kg/injection, schedule: Q01DX009 (ip), vehicle: saline with Tween-80
[5] = dose: 100.0 mg/kg/injection, schedule: Q04DX003 (ip), vehicle: saline with Tween-80
[6] = dose: 200.0 mg/kg/injection, schedule: Q04DX003 (ip), vehicle: saline with Tween-80
[7] = dose: 400.0 mg/kg/injection, schedule: Q04DX003 (ip), vehicle: saline with Tween-80
[8] = dose: 100.0 mg/kg/injection, schedule: Q04DX003 (ip), vehicle: Klucel (hydroxypropylcellulose) (HPC)
[9] = dose: 200.0 mg/kg/injection, schedule: Q04DX003 (ip), vehicle: Klucel (hydroxypropylcellulose) (HPC)
[10] = dose: 100.0 mg/kg/injection, schedule: Q01DX001 (ip), vehicle: saline
[11] = dose: 100.0 mg/kg/injection, schedule: Q04DX003 (ip), vehicle: saline
[12] = dose: 200.0 mg/kg/injection, schedule: Q04DX003 (ip), vehicle: saline
[13] = dose: 400.0 mg/kg/injection, schedule: Q04DX003 (ip), vehicle: saline
[14] = dose: 25.0 mg/kg/injection, schedule: Q04DX003 (ip), vehicle: saline with Tween-80
[15] = dose: 50.0 mg/kg/injection, schedule: Q04DX003 (ip), vehicle: saline with Tween-80
[16] = dose: 200.0 mg/kg/injection, schedule: Q01DX001 (ip), vehicle: saline
[17] = dose: 400.0 mg/kg/injection, schedule: Q01DX001 (ip), vehicle: saline

Measured: T/C

CC(CCN1CCOCC1)(CN=C(N)N)c1cccc2ccccc12 (stereo not given)
inactive: dose: 12.5 mg/kg/injection, schedule: Q01DX009 (ip), vehicle: saline 111 % of control | dose: 25.0 mg/kg/injection, schedule: Q01DX009 (ip), vehicle: saline 97 % of control | dose: 25.0 mg/kg/injection, schedule: Q04DX002 (ip), vehicle: saline 93 % of control | dose: 50.0 mg/kg/injection, schedule: Q01DX009 (ip), vehicle: saline 100 % of control

CC(O)CNC1CCC(C)CC1 (stereo not given)
inactive: [1] 96 % of control | dose: 150.0 mg/kg/injection, schedule: Q01DX001 (ip), vehicle: acid diluted with saline 100 % of control

COC(=O)c1cc2ccccc2c2ccccc12
inactive: [2] 94 % of control | [3] 91 % of control | [4] 87 % of control

CCOC(=O)C(C(=O)OCC)C(C)c1ccc([N+](=O)[O-])cc1 (stereo not given)
inactive: [2] 106 % of control | dose: 100.0 mg/kg/injection, schedule: Q04DX002 (ip), vehicle: saline with Tween-80 100 % of control | [3] 106 % of control | dose: 200.0 mg/kg/injection, schedule: Q04DX002 (ip), vehicle: saline with Tween-80 103 % of control | [4] 113 % of control | dose: 400.0 mg/kg/injection, schedule: Q04DX002 (ip), vehicle: saline with Tween-80 92 % of control

CC(C)(C)C(=O)CC(=O)C(C)(C)C.CC(C)(C)C(=O)CC(=O)C(C)(C)C.CC(C)(C)C(=O)CC(=O)C(C)(C)C.[Ho]
inactive: [5] 94 % of control | [6] 105 % of control | [7] 95 % of control

N/C(N=P(c1ccccc1)(c1ccccc1)c1ccccc1)=N\[N+](=O)[O-]
inactive: dose: 100.0 mg/kg/injection, schedule: Q04DX002 (ip), vehicle: gum acacia 101 % of control | dose: 200.0 mg/kg/injection, schedule: Q04DX002 (ip), vehicle: gum acacia 107 % of control | dose: 400.0 mg/kg/injection, schedule: Q04DX002 (ip), vehicle: gum acacia 101 % of control

[B-][N+](CC)(CC)c1ccccc1
inactive: dose: 50.0 mg/kg/injection, schedule: Q01DX009 (ip), vehicle: saline with Tween-80 92 % of control | [2] 95 % of control | [3] 92 % of control

CCOC(=O)C(CBr)CBr
inactive: dose: 100.0 mg/kg/injection, schedule: Q04DX002 (ip), vehicle: saline 91 % of control | dose: 200.0 mg/kg/injection, schedule: Q04DX002 (ip), vehicle: saline 88 % of control | dose: 400.0 mg/kg/injection, schedule: Q04DX002 (ip), vehicle: saline 122 % of control

S=c1[nH]nc2ccccn12
inactive: [8] 100 % of control | [9] 94 % of control | dose: 400.0 mg/kg/injection, schedule: Q04DX003 (ip), vehicle: Klucel (hydroxypropylcellulose) (HPC) 94 % of control

C[CH2][Pb]([CH2]C)([CH2]C)[N](C#N)C(=N)N
inactive: dose: 25.0 mg/kg/injection, schedule: Q04DX002 (ip), vehicle: Klucel (hydroxypropylcellulose) (HPC) 97 % of control | dose: 50.0 mg/kg/injection, schedule: Q04DX002 (ip), vehicle: Klucel (hydroxypropylcellulose) (HPC) 101 % of control

C/C(=C1/SC(=S)NC1=O)c1ccccc1
inactive: [10] 102 % of control

CSCCNC(=O)NS(=O)(=O)c1ccc(Cl)cc1
inactive: [11] 96 % of control | [12] 97 % of control | [13] 92 % of control

ClC1(Cl)C2C=CC=CCC21 (stereo not given)
inactive: dose: 100.0 mg/kg/injection, schedule: Q01DX009 (ip), vehicle: other 103 % of control | dose: 100.0 mg/kg/injection, schedule: Q04DX003 (ip), vehicle: other 103 % of control | dose: 200.0 mg/kg/injection, schedule: Q01DX009 (ip), vehicle: other 97 % of control | dose: 200.0 mg/kg/injection, schedule: Q04DX003 (ip), vehicle: other 92 % of control | dose: 400.0 mg/kg/injection, schedule: Q01DX009 (ip), vehicle: other 92 % of control

O=C(CCl)Nc1ncc([N+](=O)[O-])s1
inactive: dose: 12.5 mg/kg/injection, schedule: Q04DX003 (ip), vehicle: saline with Tween-80 94 % of control | [14] 91 % of control | [15] 87 % of control

CCCCCCC(C)NCC(C)O (stereo not given)
inactive: [1] 96 % of control

COc1ccc(S(=O)(=O)Nc2cc([N+](=O)[O-])ccc2C)cc1
inactive: dose: 100.0 mg/kg/injection, schedule: Q01DX009 (ip), vehicle: Klucel (hydroxypropylcellulose) (HPC) 100 % of control | dose: 200.0 mg/kg/injection, schedule: Q01DX009 (ip), vehicle: Klucel (hydroxypropylcellulose) (HPC) 100 % of control | dose: 400.0 mg/kg/injection, schedule: Q01DX009 (ip), vehicle: Klucel (hydroxypropylcellulose) (HPC) 98 % of control

CC(=O)Oc1c2c(c(OC(C)=O)c3c1C(=O)c1ccccc1C3=O)CCCC2
inactive: [10] 98 % of control | [16] 92 % of control | [17] 98 % of control

FC(F)(F)c1nn[nH]n1
inactive: [5] 101 % of control | [6] 108 % of control | [7] 103 % of control

O=C(O)C(=O)O.[Co+3].[NH-]C(Cc1ccccc1)C(=O)[O-].[NH-]CCN(CC[NH-])CC[NH-] (stereo not given)
inactive: dose: 50.0 mg/kg/injection, schedule: Q01DX001 (ip), vehicle: saline 110 % of control | [10] 105 % of control | [16] 104 % of control | [17] 102 % of control

O=C(CC(C(=O)O)N1CCOCC1)c1ccccc1 (stereo not given)
inactive: dose: 50.0 mg/kg/injection, schedule: Q01DX009 (ip), vehicle: saline sonified 99 % of control | dose: 100.0 mg/kg/injection, schedule: Q01DX009 (ip), vehicle: saline sonified 97 % of control | [8] 97 % of control | dose: 200.0 mg/kg/injection, schedule: Q01DX009 (ip), vehicle: saline sonified 97 % of control | [9] 92 % of control

CCCCOCCOCCOCCO
inactive: dose: 100.0 mg/kg/injection, schedule: Q01DX009 (ip), vehicle: saline 98 % of control | [11] 98 % of control | dose: 200.0 mg/kg/injection, schedule: Q01DX009 (ip), vehicle: saline 98 % of control | [12] 98 % of control | dose: 400.0 mg/kg/injection, schedule: Q01DX009 (ip), vehicle: saline 102 % of control | [13] 97 % of control

Cc1cc(C)c(C#[N+][O-])c(C)c1
inactive: [14] 93 % of control | [15] 98 % of control

CSc1ncnc2c1ncn2N1CCCC1
inactive: dose: 75.0 mg/kg/injection, schedule: Q01DX001 (ip), vehicle: other 101 % of control | dose: 150.0 mg/kg/injection, schedule: Q01DX001 (ip), vehicle: other 97 % of control | dose: 300.0 mg/kg/injection, schedule: Q01DX001 (ip), vehicle: other 98 % of control

CC1(C)N=C(N)N=C(N)N1c1cccc(OCCC#N)c1
inactive: dose: 25.0 mg/kg/injection, schedule: Q04DX003 (ip), vehicle: saline 112 % of control | dose: 50.0 mg/kg/injection, schedule: Q04DX003 (ip), vehicle: saline 108 % of control | [11] 100 % of control and 104 % of control

O=C(O)c1cc(Br)cc(Br)c1Cl
inactive: dose: 100.0 mg/kg/injection, schedule: Q04DX002 (ip), vehicle: Klucel (hydroxypropylcellulose) (HPC) 108 % of control | dose: 200.0 mg/kg/injection, schedule: Q04DX002 (ip), vehicle: Klucel (hydroxypropylcellulose) (HPC) 105 % of control | dose: 400.0 mg/kg/injection, schedule: Q04DX002 (ip), vehicle: Klucel (hydroxypropylcellulose) (HPC) 97 % of control
